Results reported in paper PMC12434521, “Characterization of Next-Generation Inhibitors for the Inward-Rectifier Potassium Channel Kir2.1: Discovery of VU6080824” (ACS Medicinal Chemistry Letters, 2025).
“And” between values parts separate entries of the source, which are not always exact repeats. Equal entries are not always repeated. Where two headings read alike, the source gives them in different places.

Key:
human Kir2.1 [1] = target: T1, human Kir2.1 (Homo sapiens, UniProt P63252); experiment: Kir2.1 manual patch clamp (MPC) assay; type: cell-based; settings: for Emax / Manual patch clamp Emax: % inhibition of Ba2+-sensitive current at highest tested concentration (3–30 μM); for IC50: pH 7.4, -120 mV, normalized to 2 mM Ba2+ block, top concentration 10 μM (ML133 30 μM, 5t 3 μM)
T1 construct: expressed in transfected cells
T1 sequence (P63252 1-427): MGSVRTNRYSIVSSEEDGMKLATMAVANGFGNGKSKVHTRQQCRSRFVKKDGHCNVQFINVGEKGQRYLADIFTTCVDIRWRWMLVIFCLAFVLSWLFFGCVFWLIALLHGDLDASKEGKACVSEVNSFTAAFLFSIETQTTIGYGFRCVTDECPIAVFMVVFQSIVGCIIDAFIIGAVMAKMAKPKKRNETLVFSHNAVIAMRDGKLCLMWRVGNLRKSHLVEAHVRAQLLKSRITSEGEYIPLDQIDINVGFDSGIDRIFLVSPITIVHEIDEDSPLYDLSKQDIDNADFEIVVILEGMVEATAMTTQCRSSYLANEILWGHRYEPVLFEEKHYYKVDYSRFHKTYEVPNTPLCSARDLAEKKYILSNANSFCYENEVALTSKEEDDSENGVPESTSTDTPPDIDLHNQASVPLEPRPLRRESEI
Description: (§1) Manual Patch Claim Assay Experimental Conditions
(§2) Whole-cell patch-clamp electrophysiology was used to record K ir2.1 currents from a stably transfected monoclonal T-Rex-HEK-293 cell line with a tetracycline-inducible promoter expressing human Kir2.1, as described previously1 cultured in a 5% CO2 incubator at 37°C. Kir2.1 expression was induced by overnight treatment with 1 µg/mL tetracycline. Cells were dissociated using 0.25% Trypsin-EDTA and seeded onto 12 mm circular coverslips (Electron Microscopy Sciences, PA, USA) for same-day whole-cell patch-clamp recordings. Kir2.1 currents were recorded at room temperature using an AxoPatch 200B amplifier with Clampex 10.7 software (Molecular Devices, USA). The voltage-clamp protocol consisted of a 1-s step to -120 mV from a -80 mV holding potential, followed by a 2-s ramp to +40 mV, repeated every 10 s. Data were sampled at 5 kHz and filtered at 1 kHz. Patch pipettes, pulled from 1.5 mm OD thin-walled capillaries (Warner Instruments, MA, USA) using a Sutter P-1000 puller (Sutter Instrument, CA, USA), had resistances of 2–3 MΩ when filled with intracellular solution containing (mM): 135 KCl, 10 HEPES, 1 EGTA, 2 MgCl2, 2 Na2ATP (pH 7.35, adjusted with KOH). The extracellular solution contained (mM): 135 NaCl, 5 KCl, 2 CaCl2, 1 MgCl2, 5 Glucose, 10 HEPES, 10 Sucrose (pH 7.35, adjusted with NaOH). After establishing stable baseline Kir2.1 currents, cells were perfused with compounds at concentrations of 0.03–30 µM until response saturation (within minutes).
(§3) Recordings concluded with a 2 mM Ba2+ solution to isolate Ba2+-sensitive currents, with compound responses expressed as fractions of this current. Current amplitudes at the -120 mV step were analyzed using Clampfit 11.2 (Molecular Devices). IC50 values were calculated by fitting the Hill equation to concentration-response curves (CRCs) using variable -slope nonlinear regression in GraphPad Prism 10.4 (GraphPad Software).
(§4) MPC experiments for Kir2.2 and Kir2.3 were conducted in an analogous fashion.1

Kir2.2 = target: T2, Kir2.2 (Homo sapiens, UniProt Q14500); experiment: Kir2.2 manual patch clamp (MPC); type: cell-based
T2 construct: expressed in transfected cells
T2 sequence (Q14500 1-433): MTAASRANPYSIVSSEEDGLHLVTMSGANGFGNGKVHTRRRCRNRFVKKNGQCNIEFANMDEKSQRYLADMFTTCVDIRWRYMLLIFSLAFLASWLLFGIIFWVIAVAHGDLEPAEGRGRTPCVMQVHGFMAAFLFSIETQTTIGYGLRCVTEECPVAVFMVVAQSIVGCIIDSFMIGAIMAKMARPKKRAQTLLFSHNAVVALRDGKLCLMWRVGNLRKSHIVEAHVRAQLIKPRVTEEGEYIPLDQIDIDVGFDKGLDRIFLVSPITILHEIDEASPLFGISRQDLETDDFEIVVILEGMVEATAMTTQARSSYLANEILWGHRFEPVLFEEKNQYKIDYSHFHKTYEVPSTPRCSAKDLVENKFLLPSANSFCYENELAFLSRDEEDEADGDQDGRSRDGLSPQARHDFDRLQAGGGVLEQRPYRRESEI
Description: as §1, §2, §3, §4

Kir2.3 = target: T3, Kir2.3 (Homo sapiens, UniProt P48050); experiment: Kir2.3 manual patch clamp (MPC); type: cell-based
T3 construct: expressed in transfected cells
T3 sequence (P48050 1-445): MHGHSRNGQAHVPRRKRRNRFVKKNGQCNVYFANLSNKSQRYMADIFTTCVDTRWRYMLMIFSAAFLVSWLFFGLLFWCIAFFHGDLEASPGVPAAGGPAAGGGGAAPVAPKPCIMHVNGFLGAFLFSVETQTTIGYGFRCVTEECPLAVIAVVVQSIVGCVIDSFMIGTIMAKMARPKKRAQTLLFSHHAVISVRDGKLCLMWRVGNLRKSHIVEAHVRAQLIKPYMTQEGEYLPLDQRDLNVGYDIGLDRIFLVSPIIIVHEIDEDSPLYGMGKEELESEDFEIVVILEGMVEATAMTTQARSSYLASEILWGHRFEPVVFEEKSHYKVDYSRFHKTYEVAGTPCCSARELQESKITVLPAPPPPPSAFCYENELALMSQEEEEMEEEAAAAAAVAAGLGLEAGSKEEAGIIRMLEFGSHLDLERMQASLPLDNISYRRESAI
Description: as §1, §2, §3, §4

human Kir2.1 [2] = target: T1, human Kir2.1; design: method as in PMID 21615117; settings: pH 7.4; read-out: Kir2.1 manual patch clamp IC50 (original report); cited from earlier work
Kir7.1 = system: Kir7.1; design: method as in PMID 21615117; settings: cited from earlier work
Kir4.1 [3] = target: T4, Kir4.1 (Homo sapiens, UniProt P78508); design: method as in PMID 21615117; settings: cited from earlier work
T4 sequence (P78508 1-379): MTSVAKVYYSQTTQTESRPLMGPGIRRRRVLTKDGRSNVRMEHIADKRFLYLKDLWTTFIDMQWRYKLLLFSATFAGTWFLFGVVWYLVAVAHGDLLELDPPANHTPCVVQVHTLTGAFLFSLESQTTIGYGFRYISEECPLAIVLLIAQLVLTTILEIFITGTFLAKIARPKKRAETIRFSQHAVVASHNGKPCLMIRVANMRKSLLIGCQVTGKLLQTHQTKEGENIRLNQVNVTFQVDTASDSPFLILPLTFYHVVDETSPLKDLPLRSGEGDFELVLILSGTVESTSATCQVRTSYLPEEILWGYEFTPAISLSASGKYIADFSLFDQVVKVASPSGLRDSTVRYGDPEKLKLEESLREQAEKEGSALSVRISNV

Kir4.1 [4] = target: T4, Kir4.1; experiment: Kir4.1 thallium flux assay; type: cell-based; settings: selective up to 10 μM

Compound	Emax (human Kir2.1 [1]; pH 7.4) [%]	Fold more potent than ML133 in MPC (human Kir2.1 [1]; pH 7.4)	IC50 (human Kir2.1 [1])	Kir2.1/Kir2.2 Selectivity (MPC) (Kir2.2) [fold]	Kir2.1/Kir2.3 Selectivity (MPC) (Kir2.3) [fold]	also measured
COc1ccc(CNCc2cccc(-c3ccccc3)c2)cc1 [Compound 5j]	100	3–5 fold	390 nM			
[2H]C([2H])([2H])Oc1ccc(CNCc2ccc(-c3cccc(OC)c3)cc2)cc1 [Compound 9]				1.4	1.8	Manual patch clamp Emax (human Kir2.1 [1]; pH 7.4): 99%
COc1ccc(CNCc2cccc3ccccc23)cc1 [ML133, N-(4-methoxybenzyl)-1-(naphthalen-1-yl)methanamine, reference compound]	99		1500 nM and 1510 nM			IC50 (human Kir2.1 [2]): 1800 nM; IC50 (Kir7.1): > 30000 nM; IC50 (Kir4.1 [3]): > 30000 nM
COc1ccc(CNCc2ccc(-c3cccc(C#N)c3)cc2)cc1 [Compound 5t]	98	3–5 fold	480 nM			
COc1ccc(CNCc2ccc(-c3ccccc3)cc2)cc1 [Compound 5k]	99		1390 nM			MPC potency relative to ML133 (human Kir2.1 [1]; pH 7.4): equipotent
COc1ccc(CNCc2ccc(-c3cccc(F)c3)cc2)cc1 [Compound 5p]	98	3–5 fold	300 nM			
[2H]C([2H])([2H])Oc1ccc(CNCc2ccc(-c3cccc(OC([2H])([2H])[2H])c3)cc2)cc1 [Compound 13]				3.2	2.4	Manual patch clamp Emax (human Kir2.1 [1]; pH 7.4): 99%
COc1ccc(CNCc2ccc(-c3cccc(OC)c3)cc2)cc1 [Compound 5s, 1-(3′-Methoxy-[1,1’-biphenyl]-4-yl)-N-(4-methoxybenzyl)methanamine]	100	3–5 fold	350 nM	2.1	2.5	IC50 (Kir4.1 [4]): > 10000 nM; IC50 (Kir2.2): 750 nM; Kir2.1/Kir2.2 Selectivity (MPC) (Kir2.2; listed as VU6080824): approximately 2 fold; IC50 (Kir2.3): 860 nM; Kir2.1/Kir2.3 Selectivity (MPC) (Kir2.3; listed as VU6080824): approximately 2 fold
COc1ccc(CNCc2ccc3c(c2)OC(F)(F)O3)cc1 [Compound 5h]	92		3030 nM			
[2H]C([2H])([2H])Oc1ccc(CNCc2cccc3ccccc23)cc1 [Compound 7]	82		3940 nM			
[2H]C([2H])([2H])Oc1cccc(-c2ccc(CNCc3ccc(OC)cc3)cc2)c1 [Compound 11]				0.73	1.3	Manual patch clamp Emax (human Kir2.1 [1]; pH 7.4): 99%
